“And” between values parts separate entries of the source, which are not always exact repeats. Identical values can stand only once. Like-named read-outs stand apart in the source and are kept apart here.
Tests used:
HCMV TRUS21stop = assay: microbe, parasite or virus in culture; format: cell-based, Human cytomegalovirus
HCMV TRwt [1] = assay: Focus-forming reduction assay (FFRA), HCMV TRwt; format: cell-based, Human cytomegalovirus; settings: for EC50 / EC90: Human betaherpesvirus 5, hT-HFF, FFRA, 96 h p.i.; for SI: hT-HFF, ratio between CC50 and EC50
Method: (§1) The antiviral activity of CCBs was evaluated against VR1814 and TRwt by means of the focus-forming reduction assay (FFRA) procedure. Briefly, hT-HFFs were seeded on 96-well plates (20,000 cells/well) and, after 24 h, treated with different concentrations of compounds (maximum concentration 20 μM, or 100 μM for felodipine) 1 h prior to and during viral infection (50 PFU/well). Control HCMV-infected cells were exposed to vehicle DMSO at 0.04%, or 0.2% for felodipine). After virus adsorption (2 h at 37 °C), virus inoculum was removed and infected cell cultures were incubated in medium containing the corresponding compounds plus 1.2% (w/v) methylcellulose (Merck) and 5% (v/v) FBS. At 96 h post infection (p.i.), cell monolayers were fixed and subjected to indirect immunoperoxidase staining (IPA) with the HCMV IEA mAb (diluted 1:150). Viral foci were microscopically counted, and the mean plaque counts for each drug concentration were expressed as a percentage of the mean plaque counts of control virus (DMSO). GraphPad Prism software was used to determine the concentration of compounds producing 50 and 90% reductions in viral titers (EC50 and EC90).

pUS21 = target: T1, pUS21 (Human cytomegalovirus, UniProt P09723); format: cell-based
T1 construct: expressed in transfected cells; host or cells: T-REx-U2OS-US21-HA (human osteosarcoma U2OS, stably transfected, tetracycline-inducible)
T1 sequence (P09723 whole entry): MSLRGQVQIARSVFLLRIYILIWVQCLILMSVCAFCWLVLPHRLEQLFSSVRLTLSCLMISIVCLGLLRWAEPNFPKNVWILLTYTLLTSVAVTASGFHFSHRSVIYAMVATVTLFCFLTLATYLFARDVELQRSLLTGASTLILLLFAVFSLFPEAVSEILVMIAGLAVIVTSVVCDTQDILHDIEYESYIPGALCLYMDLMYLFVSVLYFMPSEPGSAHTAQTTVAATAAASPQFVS
Method: Calcium measurement was determined applying the Ca^2+ add back protocol as previously described ([Luganini et al., 2023]). Briefly, non-induced (NI) or induced (I) T-REx-U2OS-US21-HA cell lines for 48 h with tetracycline, plated at a density of 5000 cells/cm^2 on glass coverslips, were loaded (45 min at 37 °C) with 2 μM Fura-2 AM (Invitrogen, Waltham, MA, USA) and excited at two alternating wavelengths: 340 and 380 nm. Fluorescence emission was captured using a Nikon Eclipse TE-2000S inverted microscope equipped with the MetaFluor Imaging System (Molecular Devices, San Jose, CA, USA). Ratiometric cytosolic Ca^2+ ([Ca^2+]c) quantification was expressed as the ratio (R) of fluorescence emitted at 510 nm for the two excitation wavelengths. Images were acquired every 3 s. Ca^2+ imaging analysis was conducted by peak amplitude quantification using Clampfit 11.1 (Axon pClamp, Molecular Devices). Responses with a ΔR340/380 > 0.05 were taken in account. To assess the ER Ca^2+ content in T-REx-U2OS-US21-HA NI or I cells, depletion of the ER Ca^2+ pool was triggered using IP3mix in the absence of extracellular Ca^2+ (0 Ca^2+). IP3mix consisted of thapsigargin (2 μM), histamine (100 μM), and ATP (100 μM). The experiments were performed in acute treatment in presence of CCBs or DMSO, as control at 0.01%.

[2] = Cell cytotoxicity assay (MTT), HMVECs; format: cell-based; settings: human; for CC50 at 5 days: HMVECs, HMVEC, MTT, five days of treatment
Method: (§2) The effect of test compounds on cell viability was determined in hT-HFFs, HMVECs and T-REx-U2OS-US21-HA cells seeded in p96-well (12,000 cells/well). After 24 h, cells were treated with compounds at concentrations starting from 300 μM and then serially diluted in culture medium, or with DMSO alone starting from 0.6% v/v as the vehicle control. For cell viability of drug combination studies, the control with DMSO was from 0.07%.

[3] = Cell cytotoxicity assay (MTT), hT-HFFs; format: cell-based; settings: human; for CC50 at 5 days: hT-HFFs, hT-HFF, MTT, five days of treatment
Method: as §2

HCMV VR1814 [4] = assay: Focus-forming reduction assay (FFRA), HCMV VR1814; format: cell-based, Human cytomegalovirus; settings: hT-HFF; for EC50 / EC90: Human betaherpesvirus 5, VR1814, FFRA, 96 h p.i.; for SI: VR1814, ratio between CC50 and EC50
Method: as §1

HCMV TRwt [5] = assay: Focus-forming reduction assay (FFRA), HCMV TRwt; format: cell-based, Human cytomegalovirus
HCMV VR1814 [6] = assay: Focus-forming reduction assay (FFRA), HCMV VR1814; format: cell-based, Human cytomegalovirus
[7] = Human betaherpesvirus 5, hT-HFF, TRUS21stop, FFRA, 96 h p.i., read-out: EC50
[8] = Human betaherpesvirus 5, hT-HFF, TRUS21stop, FFRA, 96 h p.i., read-out: EC90
[9] = hT-HFF, TRUS21stop, ratio between CC50 and EC50
[10] = HMVEC, TRwt, ratio between CC50 and EC50
[11] = Human betaherpesvirus 5, HMVEC, TRwt, FFRA, 96 h p.i., read-out: EC50
[12] = Human betaherpesvirus 5, HMVEC, TRwt, FFRA, 96 h p.i., read-out: EC90
[13] = HMVEC, VR1814, ratio between CC50 and EC50
[14] = Human betaherpesvirus 5, HMVEC, VR1814, FFRA, 96 h p.i., read-out: EC50
[15] = Human betaherpesvirus 5, HMVEC, VR1814, FFRA, 96 h p.i., read-out: EC90
[16] = Human betaherpesvirus 5, HMVEC, 96 h

Row | SMILES | EC50 (HCMV TRUS21stop; [7]) | EC50 (HCMV TRwt [1]) | Ca2+-conducting activity of pUS21 (Ca2+ release from the ER after IP3mix) (pUS21) | EC90 (HCMV TRUS21stop; [8]) | SI (HCMV TRUS21stop; [9]) | CC50 at 5 days [2] | CC50 at 5 days [3] | EC50 (HCMV VR1814 [4]) | EC90 (HCMV VR1814 [4]) | SI (HCMV VR1814 [4]) | SI (HCMV TRwt [5]; [10]) | EC50 (HCMV TRwt [5]; [11]) | EC90 (HCMV TRwt [5]; [12]) | SI (HCMV VR1814 [6]; [13]) | EC50 (HCMV VR1814 [6]; [14]) | EC90 (HCMV VR1814 [6]; [15]) | EC90 (HCMV TRwt [1]) | SI (HCMV TRwt [1]) | also measured
1 | CCOC(=O)C1=C(C)NC(C)=C(C(=O)OC)C1c1cccc(Cl)c1Cl (stereo not shown) [felodipine] | 19.4 µM | 19.4 µM |  |  |  |  |  |  |  |  |  |  |  |  |  |  |  |  | 
2 | CC1=C(C(=O)OCCN(Cc2ccccc2)c2ccccc2)C(c2cccc([N+](=O)[O-])c2)C(P2(=O)OCC(C)(C)CO2)=C(C)N1 (stereo not shown) [Efonidipine, efonidipine] | 7.11 ± 0.05 µM | 3.18 ± 0.07 µM | can hamper the Ca^2+-mobilizing activity of pUS21 | > 20 µM | 47.77 | 295 ± 11 µM | 340 ± 20.1 µM | 3.04 ± 0.23 µM | 13.6 ± 2.46 µM | 111.74 | 83.21 | 3.55 ± 0.13 µM | 6.58 ± 0.91 µM | 82.28 | 3.59 ± 0.67 µM | 19.5 ± 0.72 µM | 14.2 ± 1.67 µM | 106.82 | 
3 | CC(C)Nc1nc2cc(Cl)c(Cl)cc2n1[C@H]1O[C@@H](CO)[C@H](O)[C@@H]1O [MBV, Maribavir] |  |  |  |  |  |  |  |  |  |  |  | 4.74 µM |  |  |  |  |  |  | 
4 | CC1=C(C(=O)OC(C)C)C(c2cccc([N+](=O)[O-])c2)C(C(=O)OC2CN(C(c3ccccc3)c3ccccc3)C2)=C(N)N1 (stereo not shown) [Azelnidipine, azelnidipine] | 5.46 ± 0.17 µM | 1.53 ± 0.32 µM | can hamper the Ca^2+-mobilizing activity of pUS21 | 19.36 ± 0.06 µM | 35.16 | 341 ± 20.1 µM | 192 ± 20.5 µM | 2.96 ± 0.53 µM | 14.7 ± 0.39 µM | 64.87 | 160.87 | 2.12 ± 0.14 µM | 9.53 ± 0.76 µM | 110.37 | 3.09 ± 0.46 µM | 19 ± 0.27 µM | 12.1 ± 0.27 µM | 125.50 | 
5 | COC(=O)C1=C(C)NC(C)=C(C(=O)OC(C)(C)CN(C)CCC(c2ccccc2)c2ccccc2)C1c1cccc([N+](=O)[O-])c1 (stereo not shown) [Lercanidipine, lercanidipine] | 7.6 ± 0.11 µM | 3.08 ± 0.28 µM | can hamper the Ca^2+-mobilizing activity of pUS21 | 19.9 ± 0.5 µM | 16.65 | 286 ± 19.1 µM | 127 ± 18.8 µM | 3.12 ± 0.43 µM | 12.7 ± 1.66 µM | 40.55 | 86.09 | 3.32 ± 0.38 µM | 5.9 ± 0.11 µM | 105.86 | 2.7 ± 0.54 µM | 14.5 ± 0.19 µM | 12.7 ± 1.6 µM | 41.08 | 
6 | COC(=O)C1=C(C)NC(C)=C(C(=O)OCCCN2CCC(c3ccccc3)(c3ccccc3)CC2)[C@H]1c1cccc([N+](=O)[O-])c1 [Niguldipine, niguldipine] |  |  | can hamper the Ca^2+-mobilizing activity of pUS21 |  |  |  |  |  |  |  |  |  |  |  |  |  |  |  | SI (HCMV TRUS21stop): 68.70; EC50 (HCMV TRUS21stop; Human betaherpesvirus 5, 96 h): 3.51 ± 0.22 µM; EC90 (HCMV TRUS21stop; Human betaherpesvirus 5, 96 h): 13 ± 0.63 µM; CC50 [2]: 205 ± 23.3 µM; CC50 [3]: 241 ± 23.9 µM; SI (HCMV TRwt [5]): 191.39 and 178.40; EC50 (HCMV TRwt [5]; Human betaherpesvirus 5, 96 h): 1.26 ± 0.31 µM; EC90 (HCMV TRwt [5]; Human betaherpesvirus 5, 96 h): 7.33 ± 2.54 µM; EC50 (HCMV TRwt [5]; [16]): 1.15 ± 0.29 µM; EC90 (HCMV TRwt [5]; [16]): 7.24 ± 0.59 µM; SI (HCMV VR1814 [6]): 67.93 and 76.31; EC50 (HCMV VR1814 [6]; Human betaherpesvirus 5, 96 h): 3.16 ± 0.64 µM; EC90 (HCMV VR1814 [6]; Human betaherpesvirus 5, 96 h): 15 ± 0.48 µM; EC50 (HCMV VR1814 [6]; [16]): 3.02 ± 0.16 µM; EC90 (HCMV VR1814 [6]; [16]): 12.7 ± 0.16 µM

From publication PMC13129453, “Targeting the US21 viroporin of human cytomegalovirus by calcium channel blockers as a new antiviral strategy” (Current Research in Microbial Sciences, 2026)
